Consider 4 compounds from paper PMC12304293, “Combatting virulent gut bacteria by inhibiting the biosynthesis of a two-component lanthipeptide toxin” (Nature Communications, 2025).

Molecules are shown by their SMILES. Where two headings read alike, the source gives them in different places. Non-standard residues stand in square brackets, D forms with d. Residues, ends and D or L forms follow the SMILES beside them. *: point of attachment. boroGlu = O=C(O)CC[C@H](N*)B(O)O; Abu = CC[C@H](N)C(=O)O

The target in test [1] is T1, His6-CylA-27-412 (Enterococcus faecalis, UniProt A0A2P6AWB8).
T1 sequence (A0A2P6AWB8 27-412): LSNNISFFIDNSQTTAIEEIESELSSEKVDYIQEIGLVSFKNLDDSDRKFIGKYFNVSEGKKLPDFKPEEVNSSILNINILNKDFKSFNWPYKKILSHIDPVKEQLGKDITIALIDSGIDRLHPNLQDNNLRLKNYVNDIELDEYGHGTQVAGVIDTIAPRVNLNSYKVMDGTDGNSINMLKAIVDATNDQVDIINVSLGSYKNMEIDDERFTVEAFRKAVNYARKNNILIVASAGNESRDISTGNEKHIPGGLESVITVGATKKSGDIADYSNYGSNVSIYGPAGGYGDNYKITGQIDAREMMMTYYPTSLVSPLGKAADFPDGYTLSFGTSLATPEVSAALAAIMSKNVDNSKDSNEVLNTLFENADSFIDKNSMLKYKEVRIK
Description: Analysis of CylA inhibition by LCMS (cleavage of mCylLL and mCylLS). The test is classed as biochemical. Particulars: 1 µM inhibitor; enzyme 4 nM; substrate 10 µM; 30 min, room temperature. The method, then:
We expressed CylA in Escherichia coli with an N-terminal His6-tag and without the secretion signal that is present in WT CylA. […] (4 nM) gave partial conversion to the mature core peptide after 30 min at room temperature.
A Peak highlighted in green is the LP and peak highlighted in orange is CylLL”. B Peak highlighted in blue is the LP and peak highlighted in violet is CylLS”. Longer incubation times result in near-complete cleavage of the substrates. Source data are provided as a Source Data file.
His6-CylA-27-412 was added to PBS (pH = 7.4) to achieve a total enzyme concentration of 4 nM then 1 was added to a concentration 1 μM. […] Reactions were allowed to stand for 30 min before quenching through adjustment to 1% formic acid. Reactions were analyzed directly by LCMS using a Jupiter 5 µm C4 300 Å, 50 × 2 mm LC column. The following gradient was used: 98% H2O + 0.1% FA (solvent A)/2% MeCN + 0.1% FA (solvent B) for 2 min then 98:2 to 2:98 solvent A:solvent B over 10 min. Extracted ion chromatograms (EIC) for each species were merged into a single trace. […] CylA was also previously reported to prefer the modified peptides over the linear peptides.

The target of test [2] is T1, His6-CylA-27-412. In words: Co-operative pore formation assay (pyranine liposomes) measuring CylA-catalyzed cytolysin maturation. Type of test: biochemical. The source says: Cytolysin causes hemolysis and lyses a variety of eukaryotic cells[36],[37]. Additionally, CylA aggregates and is thought to associate primarily with the membrane of the producing cell[52],[53]. To mimic the maturation of cytolysin in vitro, an enzyme assay was designed that linked toxin production to the lysis of fluorescently labeled liposomes. […] In this way, pyranine fluorescence was correlated to toxin activation allowing for the determination of EC50 values (Fig. 4B, C).
Fig. 4 In vitro pore formation assay for determining inhibitor effectiveness. A A schematic of the assay showing how pore formation is used as an indicator of toxin maturation. […] Pore formation dissipates a pH gradient between the interior of the liposome and the surrounding buffer increasing pyranine fluorescence. […] The data points from two replicates are shown (n = 2). Source data are provided as a Source Data file.
Pyranine encapsulated liposomes were prepared as described elsewhere. […] To a well in a black 96-well plate (200 µL) was added 90 µL high pH buffer (5 mM MES, 5 mM Tricine, 5 mM NaCl, pH 7.4) containing CylA (4 nM final concentration). After adding inhibitor, the mixture was incubated at room temperature for 10 min then freshly prepared (no more than 2 days old) pyranine encapsulated DOPC liposomes were added such that the total DOPC concentration was 80 µM. […] The resulting curves were max-min normalized yielding the fraction of permeabilized liposomes. […] This experiment was performed in duplicate or triplicate for each inhibitor at each concentration.
Supplementary Figure 3. Measuring CylA-cat alyzed cytolysin maturation using a pyranine pore formation assay. Plots on the left side show the normalized pyranine emission intensity monitored […]
was added 30 min later. Each trace w as collected using a differ ent total co ncentration of inhibitor as indicated in the l egend. Traces are from a single representative tri al. On the right side, the fraction of liposomes permeabilized after 30 min was plotted as a function of total inhibitor concentration. The data were fit to a dose-response function using Origin 7 and the fit curve is depicted by the red line. Errors bars represent the standard of deviation bet ween two replicates (n = 2). Source d ata are pro vided as a Source Data file. […]

Another test deals with HeLa cells. The test is classed as cell-based. The procedure: Cell culturing and maintenance was performed in Dulbecco’s Modified Eagle Medium (DMEM, Gibco) supplemented with 10% heat inactivated fetal bovine serum (FBS, Gibco). Cells were routinely checked for mycoplasm using mycoplasm specific primers. HeLa cells (ATCC) were seeded in 96 well plates (Nunc) using a seeding density of 5000 cells/well and allowed to adhere for 16 h at 37 °C, 5% CO2. […] Post-treatment, plates were incubated for 72 h at 37 °C, 5% CO2. Subsequently, the growth medium was removed, and the cells were washed once with pre-warmed phosphate buffered saline (PBS; pH = 7.2). Next, 50 µL of DMEM-FBS media containing 1 mg/mL of 3-(4,5-dimethylthiazol-2-yl)-2,5-diphenyltetrazolium bromide (MTT) was added to the cells and the cells were incubated in the dark at 37 °C, 5% CO2 for 4 h. During this time, live cells reduced yellow tetrazolium salts to purple formazan crystals through NAD(P)H-dependent oxidoreductase activity. After 4 h, the medium was removed carefully and the insoluble formazan crystals were solubilized by incubating with 100 µL of dimethyl sulfoxide (DMSO) in the dark for 1 h with intermittent swirling. Finally, absorbance was recorded at 575 nm (Supplementary Fig. 18). The percentage of cells that survived over the course of the assay was calculated using Eq. 1.1 %survival=100%−Absorbanceoftreatedwell−AvgAbsorbanceofnegativecontrolwells/AvgAbsorbanceofpositivecontrol−AvgAbsorbanceofnegativecontrol*100% […]
Supplementary Figure 18.Cytotoxicity assay of boronic acid inhibitors 2 , 3, 5- 9 against HeLa […]
µM or less as determined by an MTT-based assay. Puromycin was used as positive control, while deionized sterile w ater w as used as a n egative con trol. Source data are prov ided as a Source Dat a […]

In the case of `CC(=O)NCC(=O)N[C@@H](CC(=O)O)C(=O)N[C@H](C(=O)N[C@@H](CCC(N)=O)C(=O)N[C@@H](C)C(=O)N[C@@H](CCC(=O)O)B(O)O)C(C)C` [Compound 1] (Ac-GDVQA-boroGlu), the “His6-CylA-27-412-catalyzed cleavage of mCylLS and mCylLL” value at His6-CylA-27-412 [1] is reported as “completely blocked”.

For orientation: EC50 means the concentration needed to bring the measured effect to its halfway point. The low end stands for greater potency, the high end for weaker potency. Consider `CC(=O)N[C@@H](CO)C(=O)N[C@@H](CC(=O)O)C(=O)N[C@H](C(=O)N[C@@H](CCC(N)=O)C(=O)N[C@@H](C)C(=O)N[C@@H](CCC(=O)O)B(O)O)C(C)C` [Compound 8] (Ac-SDVQA-boroGlu), for which the EC50 on His6-CylA-27-412 [2] stood at 40 ± 3 nM.

`COc1ccc(C[C@H](N)C(=O)N[C@H]2[C@@H](O)[C@H](n3cnc4c(N(C)C)ncnc43)O[C@@H]2CO)cc1` [puromycin]: the “% survival” value was determined as 5.522% in the test with HeLa cells (additive concentration 1.6 (unit not given)); 4.2% in the test on HeLa cells (additive concentration 3.1 (unit not given)); 4.093% with HeLa cells (additive concentration 6.3 (unit not given)); 3.889% in the test on HeLa cells (additive concentration 13 (unit not given)); 3.867% with HeLa cells (additive concentration 25 (unit not given)); 3.889% in the test on HeLa cells (additive concentration 50 (unit not given)). For the same compound, the “% survival” value in the test with HeLa cells (additive concentration 100 (unit not given)) is 3.867%.

For the compound `CC[C@H](NC(=O)[C@H](CCC(N)=O)NC(=O)[C@@H](NC(=O)[C@H](CC(=O)O)NC(=O)CNC(C)=O)C(C)C)C(=O)N[C@@H](CCC(=O)O)B(O)O` [Compound 6] (Ac-GDVQ[Abu]-boroGlu), the response on His6-CylA-27-412 [2] was half-maximal at 70 ± 11 nM (EC50). For the same compound, the “increase in EC50 relative to 1” value on His6-CylA-27-412 [2] (pore formation assay) is ~ 2 fold.
